Measured values taken from paper PMC2443152, “Molecular evolution of B6 enzymes: Binding of pyridoxal-5'-phosphate and Lys41Arg substitution turn ribonuclease A into a model B6 protoenzyme” (BMC Biochemistry, 2008).
Positions count from the first letter of the chain named. Where two headings read alike, the source gives them in different places.

Key:
[1] = biological target: T1, bovine pancreatic ribonuclease A (RNase) (Bos taurus, UniProt P61823); assay: intrinsic (tyrosine) fluorescence quenching titration, nonlinear regression; type: binding; conditions: read-out: Wild-type
T1 construct: gene RNASE1; mature RNase A; recombinant from pET22b(+) NdeI/HindIII in E. coli BL21 (wild type also from bovine pancreas, Sigma type II); no tag mentioned
T1 sequence (P61823 27-150): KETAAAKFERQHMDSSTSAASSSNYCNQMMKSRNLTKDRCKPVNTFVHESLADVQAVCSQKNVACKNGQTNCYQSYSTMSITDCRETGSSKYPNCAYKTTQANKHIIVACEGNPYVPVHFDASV
Excerpt: (§1) intrinsic (tyrosine) fluorescence quenching titration, nonlinear regression on bovine pancreatic ribonuclease A (RNase)

[2] = biological target: T2, bovine pancreatic ribonuclease A (RNase) (Bos taurus, UniProt P61823, K67R); assay: as above; type: binding
T2 construct: gene RNASE1; mature RNase A; recombinant from pET22b(+) NdeI/HindIII in E. coli BL21 (wild type also from bovine pancreas, Sigma type II); no tag mentioned
T2 sequence (P61823 27-150 K67R): T1 sequence (P61823 27-150) with K41R
Excerpt: as §1

Kd [1] [µM] | Kd ([2]; read-out: K41R) [µM] | Kd ([2]; read-out: Wild-type) [µM] | Compound
120 ± 5 | 140 ± 10 |  | Cc1ncc(COP(=O)(O)O)c(C=O)c1O [PLP]
106 ± 5 | 107 ± 3 |  | Cc1ncc(COP(=O)(O)O)c(CN)c1O [PMP]
45 ± 1 | 40 ± 3 |  | Cc1ncc(COP(=O)(O)O)c(CN[C@H](C)C(=O)O)c1O [PPL-D-alanine]
23 ± 1 |  | 23 ± 1 | Cc1ncc(COP(=O)(O)O)c(CN[C@@H](C)C(=O)O)c1O [PPL-L-alanine]
